Results reported in paper PMC5717164 (Nature Communications, 2017).

Legend:
[1] = target: T1, D-alanine:D-alanine ligase (EcDdlB) (Escherichia coli, UniProt P07862); test: co-crystal structure at […] Å (formed in situ from ATP and DCS); assay type: binding
T1 construct: gene ddlB; all 306 residues of the native protein, with amino-terminal histidine-tag

[2] = target: T1, D-alanine:D-alanine ligase (EcDdlB); test: co-crystal structures at […] Å (with D-Ala-D-Ala) and […] Å (with DCSP, 4C5A); assay type: binding

SMILES	co-crystal structure at 1.65 Å (formed in situ from ATP and DCS) [1]	co-crystal structures at 1.5 Å (with D-Ala-D-Ala) and 1.65 Å (with DCSP, 4C5A) [2]
NC1CON=C1OP(=O)(O)O [DCSP, phosphorylated D-cycloserine]	phosphorylated DCS was bound in the high-affinity D-alanine binding site (D-Ala1)	
Nc1ncnc2c1ncn2[C@@H]1O[C@H](COP(=O)(O)OP(=O)(O)O)[C@@H](O)[C@H]1O [ADP]		The adenine ring of the ATP or ADP ligand lies in a pocket mainly composed of hydrophobic and aromatic residues
